Test results: PMC10609148 (Molecules, 2023)
Entries after “also recorded” stand apart in the source; their conditions may differ.

What was measured:
[1] = tested on: human recombinant Cb5R with a His6-tag; assay: Inhibition of NADH-dependent Cb5 reductase activity of His6-tagged Cb5R; assay type: biochemical; settings: pH 7, 5 μM Cb5, 0.25 mM NADH
Method: The reaction was started by the addition of 0.25 mM NADH after 10 min preincubation of the Cb5R in the assay medium, and initial rates were measured during periods of time ranging between 5 and 10 min, with a less than 10% drop in the Cb5 concentration in the assay cuvette. The Cb5 reductase activity was calculated from the change of absorbance at 550 nm using a differential extinction coefficient between reduced and oxidized Cb5 of 16.5 mM^−1·cm^−1, as in previous works [67, 69].

[2] = tested on: human recombinant Cb5R with a His6-tag; assay: Titration of FAD fluorescence of His6-tagged Cb5R; assay type: binding
Method: (§1) The assay buffer was 20 mM phosphate/0.1 mM diethylenetriaminepentaacetic acid (pH 7).

[3] = 177 μM in phosphate-buffered saline; Tricine-SDS-PAGE; cited from earlier work
[4] = cited from earlier work
Excerpt: Aβ peptides bind to ganglioside-clustered raft-like membrane microdomains, which foster the formation of Aβ oligomers and fibrils in a cholesterol-dependent manner. […] Moreover, plasma membrane lipid rafts play an active role in extracellular Aβ uptake and internalization in neurons. After the uptake of extracellular Aβ(1–42) into neurons, the intracellular ...

[5] = molecular target: Aβ(1–42)/calbindin-D28k complex (Homo sapiens, UniProt P05067); assay: Antagonism of Aβ(1–42) HiLyte-Fluor555/calbindin-D28k interaction (fluorescence); assay type: biochemical, human recombinant calbindin-D28k
Chain of Aβ(1–42)/calbindin-D28k complex (P05067 672-713 limits assumed, one chain of several): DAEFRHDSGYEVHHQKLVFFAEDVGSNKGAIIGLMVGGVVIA
Method: The purified protein were aliquoted and conserved in 30% glycerol at −80 °C until use.

Aβ(1–42)/CaM complex = molecular target: T1, Aβ(1–42)/CaM complex (Homo sapiens, UniProt P05067); assay: Antagonism of Aβ(1–42) HiLyte-Fluor555/CaM interaction (fluorescence); assay type: biochemical, Bovine brain CaM
T1 construct: purchased Merck-Sigma-Aldrich (CaM); AnaSpec (labelled Aβ peptide); host or cells: bovine brain
T1 sequence (P05067 672-713 limits assumed, one chain of several): as above
Method: Human Aβ(1–42)-HiLyte^TM-Fluor555 was purchased from AnaSpec (Freemont, CA, USA). […] His6 was purchased from Quimigen (Madrid, Spain). Bovine brain CaM and Thrombin Clean Cleavage^TM kit were purchased from Merck-Sigma-Aldrich (Madrid, Spain).
Fluorescence measurements were performed using a Fluoromax+ fluorescence Spectrophotometer (Horiba Jobin Yvon IBH Ltd., Glasgow, UK) in quartz cuvettes of 1cm light pathlength with a total volume of 2.5 mL at room temperature (24–25 °C), with excitation and emission slits of 5 nm.
The measurements of the kinetics of fluorescence have been performed in buffer 50 mM N-[2-hydroxyethyl] piperazine-N′-[2-ethanesulfonic acid], 100 mM KCl and 50 µM CaCl2 (pH 7.05).
CaM and calbindin-D28k were added from concentrated stock solutions freshly prepared in the assay buffer used in the fluorescence measurements, such that the total added volume was always lower than 10 μL.

[6] = tested on: human recombinant Cb5R with a His6-tag; assay: FRET between FAD of His6-tagged Cb5R and Aβ(1–42) HiLyte-Fluor555; assay type: binding; settings: calculated for saturation by Aβ(1–42) HiLyte-Fluor555
Method: as §1

Aβ(1–42): prevalent Aβ peptide found in the amyloid plaques of AD patients; supplied by StabVida and GenicBio
inhibition of Cb5 reductase activity (in words) [1]: potent inhibition of this activity by nanomolar Aβ(1–42) concentrations
fitted maximum of FAD fluorescence increase (ΔF/F0) ([2]; Figure 5 fit, 1:1 binding, triplicate): 0.5227
effect of Cb5 on the titration of FAD fluorescence ([2]; absence vs presence of 5 μM Cb5): the same in the absence and presence of 5 μM of Cb5; also recorded: not a significant difference
fraction of monomers and higher molecular species [3]: almost undetectable
critical concentration that induces fibrillization [4]: submicromolar range

N[C@@H](Cc1c[nH]cn1)C(=O)N[C@@H](Cc1c[nH]cn1)C(=O)N[C@@H](Cc1c[nH]cn1)C(=O)N[C@@H](Cc1c[nH]cn1)C(=O)N[C@@H](Cc1c[nH]cn1)C(=O)N[C@@H](Cc1c[nH]cn1)C(=O)O [His6, hexa-histidine]
IC50 [5]: ≤ 1 µM
IC50 (Aβ(1–42)/CaM complex): ≤ 1 µM

Aβ(1–42) HiLyte^TM-Fluor555: Human Aβ(1–42) with HiLyte-Fluor555 dye covalently bound to ASP1; AnaSpec
quenching of donor FAD fluorescence at saturation [6]: 70 ± 7%
